Calls of active or inactive are those of the source.
Legend:
Paired box protein Pax-8 = Paired box protein Pax-8 (Homo sapiens, UniProt Q06710); assay: inhibitors of PAX8-driven TPO luciferase reporter, dose response, RMG-I cells, cherry-pick (AID 687027); type: functional, cell-based;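 further: luciferase reporter driven by Pax8 target thyroperoxidase promoter measured by SteadyGlo luminescence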
HeLa = assay: Cytotoxicity counterscreen assay for transcriptional activators of heat shock protein 70 (Hsp70). [Related pubchem assays: 1203, 1252 ]; type: functional; conditions: Homo sapiens;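 further: cells exposed to compound for 16 hours before readout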
[1] = control 3'UTR Renilla luciferase suppression, dose response, counter-screen for Shn3 inhibitor project, cell-based, Clone20-Shn3RL, cherry-picked (AID 624133); type: functional
[2] = Shn3 3'UTR reporter inhibitors, dose response, cell-based, Clone20 osteoblasts, firefly luciferase, cherry-picked (AID 624132); type: functional;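 further: firefly luciferase luminescence from reporter carrying the Shn3 3'UTR in osteoblasts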
[3] = HepG2 cell cytotoxicity, dose response, cytotoxicity control for Shn3 inhibitor project, CellTiter-Glo, cherry-picked (AID 624134); type: functional, cell-based
[4] = biological target: T1, Microphthalmia-associated transcription factor (Homo sapiens, UniProt O75030); assay: TRPM1 promoter luciferase signal decrease, dose response, MITF inhibitor project, cell-based, SK-MEL-5, cherry-picked, set 3 (AID 493073); type: functional
T1 sequence (O75030 whole entry): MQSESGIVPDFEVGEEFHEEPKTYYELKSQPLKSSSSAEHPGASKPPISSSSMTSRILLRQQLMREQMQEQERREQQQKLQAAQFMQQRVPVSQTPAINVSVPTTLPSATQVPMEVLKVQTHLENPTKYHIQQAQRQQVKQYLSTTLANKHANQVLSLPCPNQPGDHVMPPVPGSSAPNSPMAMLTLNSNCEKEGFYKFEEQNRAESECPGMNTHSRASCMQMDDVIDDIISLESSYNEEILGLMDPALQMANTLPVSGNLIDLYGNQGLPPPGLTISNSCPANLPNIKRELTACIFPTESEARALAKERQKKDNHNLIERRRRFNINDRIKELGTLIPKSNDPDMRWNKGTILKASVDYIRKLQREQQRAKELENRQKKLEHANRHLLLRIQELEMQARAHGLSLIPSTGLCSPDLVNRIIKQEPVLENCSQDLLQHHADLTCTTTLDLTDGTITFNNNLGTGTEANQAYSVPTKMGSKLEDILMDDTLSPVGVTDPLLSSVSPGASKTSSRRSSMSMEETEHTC

[5] = inhibitors of Bluetongue virus cytopathic effect, confirmation, arbovirus, BSR cells (AID 1250); type: functional;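 further: protection from viral cytopathic effect measured as cell viability by ATP luminescence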
[6] = biological target: Glyceraldehyde-3-phosphate dehydrogenase (Homo sapiens, UniProt P04406)
Sequence of Glyceraldehyde-3-phosphate dehydrogenase (P04406 whole entry): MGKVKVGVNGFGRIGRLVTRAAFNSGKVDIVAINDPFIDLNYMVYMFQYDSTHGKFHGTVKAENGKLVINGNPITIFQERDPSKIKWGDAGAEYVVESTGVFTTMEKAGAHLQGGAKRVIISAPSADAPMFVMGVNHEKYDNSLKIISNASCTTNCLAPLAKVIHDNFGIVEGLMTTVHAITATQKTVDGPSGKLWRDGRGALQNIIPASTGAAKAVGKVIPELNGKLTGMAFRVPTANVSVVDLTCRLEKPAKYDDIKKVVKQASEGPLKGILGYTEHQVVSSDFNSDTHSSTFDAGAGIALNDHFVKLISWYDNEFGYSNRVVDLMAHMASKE

Bcl-2-related protein A1 [7] = biological target: T2, Bcl-2-related protein A1 (Mus musculus, UniProt Q07440); assay: Bfl-1 inhibitors blocking BH3 peptide binding, confirmation, biochemical, TR-FRET, mouse Bfl-1 (AID 621);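 further: TR-FRET binding of GST-Bfl-1 to FITC-labelled Bid peptide via terbium antibody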
T2 sequence (Q07440 whole entry): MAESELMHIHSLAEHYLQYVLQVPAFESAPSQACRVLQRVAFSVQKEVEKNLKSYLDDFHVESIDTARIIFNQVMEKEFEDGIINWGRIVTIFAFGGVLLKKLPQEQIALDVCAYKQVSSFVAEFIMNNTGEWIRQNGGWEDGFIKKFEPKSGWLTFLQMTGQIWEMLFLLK

Bcl-2-related protein A1 [8] = biological target: T2, Bcl-2-related protein A1; assay: Bfl-1 binding inhibitors, SAR follow-up, biochemical, fluorescence polarization (AID 1070)
[9] = Luminescence Cell-Based Dose Response to Identify Activators of Luciferase Translation or Activity in H4-C Neuroglioblastoma Cells. [Related pubchem assays: 1829 (Project Summary), 1814 (Primary HTS)]; type: functional
[10] = Luminescence Cell-Based Dose Confirmation to Identify Activators of 5'UTR Stem-Loop Driven Alpha-Synuclein mRNA Translation in H4 Neuroglioblastoma Cells. [Related pubchem assays: 1829 (Project Summary), 1814 (Primary HTS)]; type: functional
[11] = Luminescence Cell-Based Dose Response to Identify Activators of 5'UTR Stem-Loop Driven Prion Protein mRNA Translation in H4-C Neuroglioblastoma Cells. [Related pubchem assays: 1829 (Project Summary), 1814 (Primary HTS)]; type: functional
[12] = Luminescence Cell-Based Dose Response HTS to Identify Activators of Luciferase Translation or Activity in H4 […] Cells. [Related pubchem assays: 1829 (Project Summary), 1814 (Primary HTS)]; type: functional
[13] = biological target: Protein-tyrosine kinase 2-beta (Homo sapiens, UniProt Q14289);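 further: potency of inhibitors of PYK2 kinase phosphorylation of poly-GT substrate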
Sequence of Protein-tyrosine kinase 2-beta (Q14289 whole entry): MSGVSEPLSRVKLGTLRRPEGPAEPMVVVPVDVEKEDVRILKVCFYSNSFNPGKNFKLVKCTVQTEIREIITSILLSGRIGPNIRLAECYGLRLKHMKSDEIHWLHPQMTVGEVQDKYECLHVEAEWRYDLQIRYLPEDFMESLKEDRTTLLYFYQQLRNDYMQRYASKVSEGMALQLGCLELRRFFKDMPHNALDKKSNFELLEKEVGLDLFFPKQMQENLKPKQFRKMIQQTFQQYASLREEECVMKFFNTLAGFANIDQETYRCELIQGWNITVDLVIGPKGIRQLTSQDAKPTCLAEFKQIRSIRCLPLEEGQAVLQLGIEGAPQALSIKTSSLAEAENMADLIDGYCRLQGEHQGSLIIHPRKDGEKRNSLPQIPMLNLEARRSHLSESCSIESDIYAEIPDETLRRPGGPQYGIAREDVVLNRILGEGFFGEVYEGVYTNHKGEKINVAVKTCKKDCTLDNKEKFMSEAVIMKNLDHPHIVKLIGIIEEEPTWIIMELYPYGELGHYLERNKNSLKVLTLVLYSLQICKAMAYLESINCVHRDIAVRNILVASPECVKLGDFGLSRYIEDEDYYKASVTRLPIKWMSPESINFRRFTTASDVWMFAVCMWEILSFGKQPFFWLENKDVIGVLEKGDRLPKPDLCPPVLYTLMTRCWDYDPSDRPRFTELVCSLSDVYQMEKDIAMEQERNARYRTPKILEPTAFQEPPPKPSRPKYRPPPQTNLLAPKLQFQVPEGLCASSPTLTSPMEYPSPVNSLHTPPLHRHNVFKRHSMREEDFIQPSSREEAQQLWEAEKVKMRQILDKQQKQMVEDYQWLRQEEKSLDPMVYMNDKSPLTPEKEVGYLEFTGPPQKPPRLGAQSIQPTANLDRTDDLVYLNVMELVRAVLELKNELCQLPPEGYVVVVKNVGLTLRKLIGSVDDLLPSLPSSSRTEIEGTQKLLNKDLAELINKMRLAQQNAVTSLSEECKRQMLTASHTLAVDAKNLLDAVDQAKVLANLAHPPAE

[14] = biological target: Eukaryotic translation initiation factor 4E (Mus musculus, UniProt P63073); assay: eIF4E–eIF4G protein interaction inhibitors, dose response, biochemical, TR-FRET (AID 855); type: functional;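 further: potency for disrupting eIF4E binding to eIF4GI seen as loss of FRET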
Sequence of Eukaryotic translation initiation factor 4E (P63073 whole entry): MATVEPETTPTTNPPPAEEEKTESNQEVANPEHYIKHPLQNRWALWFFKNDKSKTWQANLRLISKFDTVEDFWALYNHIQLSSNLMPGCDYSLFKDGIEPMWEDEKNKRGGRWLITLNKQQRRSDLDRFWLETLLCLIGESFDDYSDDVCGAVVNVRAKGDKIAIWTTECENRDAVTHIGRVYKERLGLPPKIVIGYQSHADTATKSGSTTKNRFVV

[15] = biological target: Mothers against decapentaplegic homolog 3 (Homo sapiens, UniProt P84022); assay: SMAD3 transcription factor inhibitors, dose response (AID 715); type: functional
Sequence of Mothers against decapentaplegic homolog 3 (P84022 whole entry): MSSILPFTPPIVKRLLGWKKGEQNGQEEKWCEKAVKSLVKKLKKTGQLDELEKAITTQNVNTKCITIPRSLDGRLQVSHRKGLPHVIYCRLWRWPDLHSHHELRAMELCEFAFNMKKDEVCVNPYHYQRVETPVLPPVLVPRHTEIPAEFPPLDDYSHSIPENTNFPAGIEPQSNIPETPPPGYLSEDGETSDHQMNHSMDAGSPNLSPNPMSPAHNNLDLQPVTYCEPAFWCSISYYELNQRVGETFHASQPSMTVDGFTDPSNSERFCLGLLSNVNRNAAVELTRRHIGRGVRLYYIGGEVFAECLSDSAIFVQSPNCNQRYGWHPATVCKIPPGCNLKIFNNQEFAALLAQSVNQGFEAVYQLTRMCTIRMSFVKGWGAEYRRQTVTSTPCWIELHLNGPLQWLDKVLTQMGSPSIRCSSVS

Bcl-2-like protein 10 = Bcl-2-like protein 10 (Homo sapiens, UniProt Q9HD36); assay: Biochemical TR3 FP assay of Bcl-B inhibitor potency, EC50 (AID 1243); type: functional
Sequence of Bcl-2-like protein 10 (Q9HD36 whole entry): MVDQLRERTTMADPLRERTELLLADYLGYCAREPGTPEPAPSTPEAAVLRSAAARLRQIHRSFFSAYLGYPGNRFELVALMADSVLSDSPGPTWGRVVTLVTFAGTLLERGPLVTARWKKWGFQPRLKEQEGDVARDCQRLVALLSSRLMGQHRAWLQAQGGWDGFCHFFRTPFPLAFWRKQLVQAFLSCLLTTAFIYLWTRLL

Estrogen receptor = biological target: T3, Estrogen receptor (Homo sapiens, UniProt P03372); assay: ERα–SRC-3 coactivator interaction inhibitors, confirmation, orthogonal assay, biochemical, ELISA, streptavidin-HRP readout (AID 1079)
T3 sequence (P03372 whole entry): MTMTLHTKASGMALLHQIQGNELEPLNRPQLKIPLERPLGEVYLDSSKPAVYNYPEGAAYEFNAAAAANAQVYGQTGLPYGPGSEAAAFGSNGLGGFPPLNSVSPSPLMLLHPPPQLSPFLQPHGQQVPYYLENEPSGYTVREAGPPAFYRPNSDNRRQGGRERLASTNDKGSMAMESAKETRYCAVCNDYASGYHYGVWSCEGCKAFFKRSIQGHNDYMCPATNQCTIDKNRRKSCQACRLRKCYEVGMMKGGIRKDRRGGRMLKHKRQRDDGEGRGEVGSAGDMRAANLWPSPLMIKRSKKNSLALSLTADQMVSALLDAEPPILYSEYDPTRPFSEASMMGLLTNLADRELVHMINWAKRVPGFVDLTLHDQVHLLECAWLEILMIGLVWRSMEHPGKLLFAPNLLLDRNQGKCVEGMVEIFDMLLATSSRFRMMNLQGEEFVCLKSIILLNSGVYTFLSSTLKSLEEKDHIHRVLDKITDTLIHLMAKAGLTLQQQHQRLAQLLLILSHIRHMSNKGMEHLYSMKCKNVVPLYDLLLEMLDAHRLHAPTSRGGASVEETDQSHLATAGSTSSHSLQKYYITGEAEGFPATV

Ion channel NompC = Ion channel NompC (Danio rerio, UniProt Q7T1G6); assay: Fluorescence counterscreen assay for TRPML3 agonists: dose response cell-based high-throughput screening assay to identify agonists of the transient receptor potential channel N1 (TRPN1). [Related pubchem assays: 1526, 1424, 1448 ]; type: functional
Mucolipin-3 = Mucolipin-3 (Homo sapiens, UniProt Q8TDD5); assay: Dose response cell-based high-throughput screening assay for agonists of the transient receptor potential channel ML3 (TRPML3). [Related pubchem assays: 1526, 1424, 1448 ]; type: functional
Sequence of Mucolipin-3 (Q8TDD5 whole entry): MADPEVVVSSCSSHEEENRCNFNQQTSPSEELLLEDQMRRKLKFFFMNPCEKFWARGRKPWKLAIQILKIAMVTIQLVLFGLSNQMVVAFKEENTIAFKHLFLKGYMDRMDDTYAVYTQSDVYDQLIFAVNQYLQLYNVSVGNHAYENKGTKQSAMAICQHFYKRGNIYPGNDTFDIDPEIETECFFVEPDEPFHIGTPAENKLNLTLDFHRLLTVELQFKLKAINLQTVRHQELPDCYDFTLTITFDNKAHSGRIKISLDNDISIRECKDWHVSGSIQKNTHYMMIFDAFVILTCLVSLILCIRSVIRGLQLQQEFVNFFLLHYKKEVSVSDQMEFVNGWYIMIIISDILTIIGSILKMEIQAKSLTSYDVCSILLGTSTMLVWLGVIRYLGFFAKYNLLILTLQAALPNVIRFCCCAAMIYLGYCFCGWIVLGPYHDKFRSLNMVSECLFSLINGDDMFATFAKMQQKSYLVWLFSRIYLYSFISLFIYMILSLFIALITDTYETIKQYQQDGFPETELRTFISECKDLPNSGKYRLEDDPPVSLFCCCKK

BJ [16] = assay: cytotoxicity toward BJ-TERT-LT-ST fibroblasts, dose response, cell-based, RAS-independent, luminescence (AID 1935); type: functional; conditions: Homo sapiens;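 further: BJ fibroblasts immortalized with TERT plus LT and ST oncogenes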
Vero = assay: cells; type: functional; conditions: Chlorocebus sabaeus
BJ [17] = assay: cells; type: functional, cell-based; conditions: Homo sapiens
[18] = Luminescence-based dose response cell-based high throughput screening assay for cytotoxic compounds using the IEC-6 intestinal epithelial cell line. [Related pubchem assays: 1858 (Summary AID.), 1825 (Counterscreen.), 1907 (Confirmation screen.)]; type: functional
BJ [19] = assay: cytotoxicity toward Ras-transformed BJeLR fibroblasts, dose response, cell-based, alamar blue fluorescence, cherrypicked samples (AID 2631); type: functional; conditions: Homo sapiens;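 further: confirmatory dose-response assay in RAS-dependent BJ fibroblasts engineered with TERT, LT and ST, with cytotoxicity read by fluorescence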
[20] = cytotoxicity toward DRD oncogenic fibroblasts, dose response, cell-based, non-viral oncogenic, luminescence (AID 1934); type: functional; conditions: Homo sapiens
BJ [21] = assay: cytotoxicity toward BJ-TERT fibroblasts, dose response, cell-based, RAS-independent, luminescence (AID 1933); type: functional; conditions: Homo sapiens
Insulin-degrading enzyme = biological target: T4, Insulin-degrading enzyme (Homo sapiens, UniProt P14735); assay: Dose Response: Fluorescence polarization-based cell-based high throughput dose response assay for inhibitors of insulin-degrading enzyme (IDE). [Related pubchem assays: 434962 (Primary screen (IDE inhibitors in singlicate)), 449730 (Counterscreen (Cytotoxicity in triplicate)), 435028 (Confirmation (IDE inhibitors in triplicate)), 434984 (Summary …; type: functional
T4 sequence (P14735 whole entry): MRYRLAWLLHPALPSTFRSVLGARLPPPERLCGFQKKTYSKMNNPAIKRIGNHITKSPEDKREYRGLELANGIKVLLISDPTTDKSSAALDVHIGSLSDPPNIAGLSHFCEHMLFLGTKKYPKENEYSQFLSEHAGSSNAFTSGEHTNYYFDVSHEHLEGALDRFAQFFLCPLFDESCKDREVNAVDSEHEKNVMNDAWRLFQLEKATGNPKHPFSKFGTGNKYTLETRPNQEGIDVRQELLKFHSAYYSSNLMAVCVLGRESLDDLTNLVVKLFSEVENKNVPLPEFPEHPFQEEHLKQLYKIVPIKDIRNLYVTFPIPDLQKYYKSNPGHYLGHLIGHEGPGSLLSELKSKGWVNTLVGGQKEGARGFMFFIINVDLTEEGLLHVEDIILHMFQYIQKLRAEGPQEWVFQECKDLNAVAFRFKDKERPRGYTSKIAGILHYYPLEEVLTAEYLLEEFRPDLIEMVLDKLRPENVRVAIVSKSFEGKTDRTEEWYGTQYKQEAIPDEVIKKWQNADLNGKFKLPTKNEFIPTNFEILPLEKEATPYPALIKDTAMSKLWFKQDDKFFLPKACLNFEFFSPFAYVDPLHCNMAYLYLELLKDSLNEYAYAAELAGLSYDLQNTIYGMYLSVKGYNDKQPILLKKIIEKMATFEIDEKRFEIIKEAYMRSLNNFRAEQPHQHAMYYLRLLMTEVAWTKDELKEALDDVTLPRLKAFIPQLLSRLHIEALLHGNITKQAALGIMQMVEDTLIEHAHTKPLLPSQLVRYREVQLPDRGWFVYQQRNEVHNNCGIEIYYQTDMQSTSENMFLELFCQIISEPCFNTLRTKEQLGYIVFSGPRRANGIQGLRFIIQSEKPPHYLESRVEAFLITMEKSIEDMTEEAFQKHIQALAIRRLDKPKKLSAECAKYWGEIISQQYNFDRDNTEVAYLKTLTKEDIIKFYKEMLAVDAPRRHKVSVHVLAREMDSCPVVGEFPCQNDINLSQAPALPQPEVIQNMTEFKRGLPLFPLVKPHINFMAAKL

[22] = Counterscreen for IDE inhibitors: Luminescence-based cell-based high throughput dose response assay to identify compounds that are cytotoxic to HEK cells. [Related pubchem assays: 434962 (Primary screen (IDE inhibitors in singlicate)), 449730 (Counterscreen (Cytotoxicity in triplicate)), 435028 (Confirmation (IDE inhibitors in triplicate)) …; type: functional; conditions: HEK293
[23] = A High Throughput Confirmatory Assay used to Identify Novel Compounds that Inhibit Mycobacterium Tuberculosis in the absence of Glycerol.; type: functional
[24] = microbe, parasite or virus in culture; type: functional; conditions: Mycobacterium tuberculosis
HEK293 [25] = assay: cells; conditions: Homo sapiens
HEK293 [26] = assay: cells; conditions: Homo sapiens; remark: listed apart in the source
[27] = biological target: Sphingosine 1-phosphate receptor 2 (Homo sapiens, UniProt O95136); assay: Dose Response Cell Based Assay for Agonists of the S1P2 Receptor of Purchased Analogues. [Related pubchem assays: 729, 843, 854, 736 ]; type: functional
Sequence of Sphingosine 1-phosphate receptor 2 (O95136 whole entry): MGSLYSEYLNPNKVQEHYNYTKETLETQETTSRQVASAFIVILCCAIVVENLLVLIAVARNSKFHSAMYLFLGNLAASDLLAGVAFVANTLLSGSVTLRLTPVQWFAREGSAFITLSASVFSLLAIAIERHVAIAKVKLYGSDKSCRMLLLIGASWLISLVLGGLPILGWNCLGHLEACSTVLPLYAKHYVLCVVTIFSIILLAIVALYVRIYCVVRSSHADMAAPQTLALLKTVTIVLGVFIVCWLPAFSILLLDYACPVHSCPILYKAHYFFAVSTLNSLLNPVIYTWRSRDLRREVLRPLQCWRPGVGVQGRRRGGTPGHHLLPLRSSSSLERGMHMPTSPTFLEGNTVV

[28] = biological target: Inward rectifier potassium channel 2 (Mus musculus, UniProt P35561); assay: Manual electrophysiological patch clamp assay for SAR compounds that inhibit/block inward-rectifying potassium ion channel Kir2.1. [Related pubchem assays: 1843 (Summary assay for Kir2.1 inhibitor assays.), 1672 (Primary HTS of 305616 compounds where 2592 were identified as active.)]; type: functional
Sequence of Inward rectifier potassium channel 2 (P35561 whole entry): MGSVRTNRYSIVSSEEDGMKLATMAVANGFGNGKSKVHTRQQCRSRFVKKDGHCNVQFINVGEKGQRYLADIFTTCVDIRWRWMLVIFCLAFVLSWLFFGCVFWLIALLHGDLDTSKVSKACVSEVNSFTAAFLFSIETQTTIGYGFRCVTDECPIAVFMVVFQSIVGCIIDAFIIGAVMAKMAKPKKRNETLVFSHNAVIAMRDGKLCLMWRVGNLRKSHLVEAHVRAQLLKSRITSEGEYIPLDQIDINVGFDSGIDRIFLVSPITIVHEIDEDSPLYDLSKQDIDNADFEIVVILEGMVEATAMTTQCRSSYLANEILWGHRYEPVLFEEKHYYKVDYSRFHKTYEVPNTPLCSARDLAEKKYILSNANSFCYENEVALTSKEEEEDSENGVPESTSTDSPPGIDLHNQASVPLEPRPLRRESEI

Sequence of Paired box protein Pax-8 (Q06710 whole entry): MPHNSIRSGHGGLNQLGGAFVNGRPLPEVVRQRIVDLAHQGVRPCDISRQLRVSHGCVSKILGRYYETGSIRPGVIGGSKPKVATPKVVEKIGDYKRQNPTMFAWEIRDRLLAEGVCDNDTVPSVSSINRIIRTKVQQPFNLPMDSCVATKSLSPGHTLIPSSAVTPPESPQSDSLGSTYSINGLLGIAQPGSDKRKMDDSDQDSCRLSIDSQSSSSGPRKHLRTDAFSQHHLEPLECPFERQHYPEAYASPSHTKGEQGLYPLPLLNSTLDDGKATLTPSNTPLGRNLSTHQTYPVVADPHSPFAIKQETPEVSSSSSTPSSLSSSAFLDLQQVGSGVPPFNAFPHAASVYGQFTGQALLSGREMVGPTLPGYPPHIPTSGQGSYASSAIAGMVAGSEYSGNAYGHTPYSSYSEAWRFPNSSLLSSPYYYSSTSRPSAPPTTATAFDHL

CC(C)C(=O)N1CCN(c2ccc(NC(=O)c3ccc([N+](=O)[O-])o3)cc2Cl)CC1
AC50 (Paired box protein Pax-8): 3.25 µM (active) | CC50 (HeLa): 3.45 µM (active) | AC50 [1]: 8.27 µM (active) | AC50 [2]: 0.954 µM (active) | AC50 [3]: 27.8 µM (active) | AC50 [4]: 7.05 µM (active)

CCCC1=NN2C(=N)/C(=C/c3c[nH]c4ccccc34)C(=O)N=C2S1
IC50 [5]: 64.6 µM (active)

COc1ccc(N2CCN(C3=C(Cl)C(=O)N(c4ccc(Cl)c(Cl)c4)C3=O)CC2)cc1
IC50 [6]: > 100 µM (not active) | IC50 (Bcl-2-related protein A1 [7]): 6.79 µM (active) | IC50 (Bcl-2-related protein A1 [8]): 1.25 µM (active)

C=CCSc1nnc2c3cccc(C)c3nc-2[nH]1
EC50 [9]: 0.31 µM (active) | EC50 [10]: 0.311 µM (active) | EC50 [11]: 0.317 µM (active) | EC50 [12]: < 0.1 µM (active)

O=[N+]([O-])c1cc(/C=N\Nc2nccs2)ccc1O
IC50 [13]: 3.15 µM (active) | IC50 [14]: 10.8 µM (active) | IC50 [15]: 30.9 µM (not active)

O=C(O)c1ccc([N+](=O)[O-])c2c1NC(c1ccccc1)C1CC=CC21 (stereo unspecified)
EC50 (Bcl-2-like protein 10): 3.92 µM (active)

CC(C)(C)OC(=O)[C@@H](CCC(=O)N1CCN(c2ccc(C#N)cc2)CC1)n1c(=S)[nH]c2ccccc2c1=O
IC50 (Estrogen receptor): 0.08 µM (not active)

O=S(=O)(Nc1ccccc1N1CCCCC1)c1cccs1
EC50 (Ion channel NompC): > 29.9 µM (not active) | EC50 (Mucolipin-3): 2.3 µM (active)

Cc1ccc(/C=N/NC(=O)c2[nH]nc3c2CCCC3)cc1
EC50 (BJ [16]): 0.37 µM (inconclusive) | CC50 (Vero): 0.24 µM (active) | EC50 (BJ [17]): 0.382 µM (active) | IC50 [18]: 0.32 µM (active) | EC50 (BJ [19]): < 0.104 µM (active) | EC50 [20]: 0.711 µM (inconclusive) | EC50 (BJ [21]): 0.31 µM (inconclusive)

COc1cc(/C=C2\SC(=N)N(c3ccc(F)cc3)C2=O)ccc1O
IC50 (Insulin-degrading enzyme): 29.3 µM (not active) | IC50 [22]: 39.5 µM (not active)

CCCCC(=O)/C=C/n1c(=S)oc2ccccc21
IC50 [23]: > 100 µM (active) | CC50 [24]: 19.8 µM (active) | EC50 (HEK293 [25]): > 2.21 µM (active) | EC50 (HEK293 [26]): > 59.6 µM (inactive)

Cc1cc(C(=O)Cn2cnc3c2c(=O)n(C)c(=O)n3C)c(C)n1Cc1ccccc1
EC50 [27]: > 30 µM (not active)

COc1ccc(CNC2CCCc3ccccc32)cc1 (stereo unspecified)
IC50 [28]: 3.59 µM (active)

From ChEMBL document CHEMBL1201862, “PubChem BioAssay data set” (2004)
